{
  "source": "patent US20190227072A1",
  "about": "“Biomarkers for Carcinogenesis and Uses Thereof” (GEORGETOWN UNIVERSITY, priority 2016, published 2019)",
  "key": {"HepG2 cells": {"tested_on": "HepG2 cells", "test": "DHHεdA formation in HepG2 cellular DNA after EH or AA treatment, LC-MS/MS-MRM", "type": "cell-based, human", "details": "24 h", "experimental": "HepG2 cells (#HB-8065, ATCC, Manassas, Va.) were grown in complete DMEM (#10-013, Corning Life Sciences, Tewksbury, Mass.) until 85-90% confluent. Cells were treated with a final concentration of 100 μM or 300 μM of either arachidonic acid (AA) or EH solubilized in 70% EtOH for 24 h. Cells were then scraped down in media and transferred to a centrifuge tube and spun for 3000 rpm for 5 min. The pellet was washed 2× with 1×PBS, centrifuging between washes. DNA was then isolated from the cells and prepared for LC-MS/MS-MRM, after enzymatic hydrolysis as described above.\nDNA was isolated by a QIAGEN Blood and Cell Culture DNA Maxi Kit (#13362, QIAGEN Inc., Valencia, Calif.) using the protocol recommended by the manufacturer. For hydrolysis, dry DNA (50 to 1000 μg) was dissolved in 5 mM magnesium chloride and 0.5 mM GSH solution (1 mL per 1 mg of DNA), then 50 fmol of [^15N5]-DHHεdA 1,2 and 50 fmol of [^15N5]-DHHεdA 3,4 were added as internal standards. DNA was hydrolyzed by incubation with DNase I (1300 units per mg of DNA, #D4527-40KU, Sigma-Aldrich, St. Louis, Mo.) for 30 min at 37° C., followed by a second addition of DNase I (1300 units per mg of DNA) and incubation for an additional 10 min at 37° C. Finally, phosphodiesterase I (0.06 units per mg DNA, #P3243-1VL, Sigma-Aldrich, St. Louis, Mo.), alkaline phosphatase (380 units per mg DNA, #10 108 146 001, Roche Diagnostic GmbH, Mannheim, Germany) and adenosine deaminase (0.5 units, #LS009043, Worthington Biochemical Corporation, Lakewood, N.J.) were added and the sample was incubated for 60 min at 37° C. After hydrolysis, a small portion of the hydrolysate was saved for further T quantification, and the remaining sample was purified using Phenomenex Strata-X 33μ 30 mg/1 mL polymeric reverse phase solid phase extraction columns (#8B-S100-TAK, Phenomenex, Torrance, Calif.). Before loading, samples columns were washed by ACN (3×1 mL) and stabilized by 25 mM ammonium formate pH=4.00 (3×1 mL). After loading, DNA hydrolysate columns were washed by 2.5% ACN in 25 mM ammonium formate pH=4.00 (1×1 mL), 5% ACN in 25 mM ammonium formate pH=4.00 (1×1 mL), followed by DHHεdA collection by 30% ACN in 25 mM ammonium formate pH=4.00 (1×1 mL). The DHHεdA fraction was dried using a SpeedVac rotary concentrator, re-dissolved in 400 μL 1:1 water:ACN, transferred to HPLC vials, dried and kept at −20° C. Before quantification, samples were dissolved in 60 μL of water and 37 μL was injected on LC-MS.\nQuantification was carried out on a SCIEX 6500 QTRAP triple quadrupole mass spectrometer (AB Sciex LLC, Framingham, Mass.) interfaced with a Waters ACQUITY UPLC liquid chromatography system equipped with Waters ACQUITY UPLC BEH C18 50×2.1 mm, 1.7 μm particle size column (Waters Corporation, Milford, Mass.). The separation of adducts was performed isocratically by eluting with 13.5% ACN, 1 mM ammonium formate buffer over 6.5 min using 0.5 mL/min flow rate at 40° C., followed by 100% ACN wash. The ESI source operated in positive mode. The MRM experiment was performed using ion transitions of 406.2-290.2 m/z (DHHεdA) and 411.2-295.1 m/z ([^15N5]-DHHεdA) with CE of 28 eV for quantification, and those of 406.2-160.1 m/z (DHHεdA) and 411.2-165.0 m/z ([^15N5]-DHHεdA) with a CE of 76 eV were used for structural confirmation. All other parameters were optimized to achieve maximum signal intensity. Calibration curves were constructed for two HPLC resolved peaks before each analysis using standard solutions of DHHεdA and [^15N5]-DHHεdA. A constant concentration of [^15N5]-DHHεdA (1 fmol/μL) was used with different concentrations of DHHεdA (3.3 amol/μL-65 fmol/μL) and analyzed using 37 μL injections by LC-MS/MS-MRM. The standard curves were linear in the range from 0.37 to 800 fmol of DHHεdA on column for both peaks (1/x weighting; r^2=0.9998 and r^2=0.9984 for both LC resolved pairs of DHHεdA stereoisomers 1,2 and 3,4 respectively). […]"}, "[1]": {"tested_on": "Primary human hepatocytes", "test": "FACS detection of DHHεdA in nuclei of EH-treated primary human hepatocytes", "type": "cell-based", "details": "300 μM EH", "experimental": "Primary human hepatocytes (#HUFS1M, Lot#HUM4132, Triangle Research Labs, Durham, N.C.) were cultured in hepatocyte media (#5201, ScienCell Research Laboratories, San Diego, Calif.) until 85-90% confluent. Cells were then treated with a final concentration of 300 μM EH dissolved in 70% EtOH, added to the culture media. The cells were collected at the designated time points following EH treatment: 0, 4, 8, 12 and 24 h. The nuclei were extracted using Nuclei EZ Prep Nuclei Isolation Kit (#NUC-101, Sigma-Aldrich, St. Louis, Mo.) and fixed with 3.7% formaldehyde for 10 min. The nuclei were then prepared for FACS analysis using the method shown previously.\nThe geometric mean of the fluorescence intensity of Alexa Fluor 488-labeled DHHεdA positive cells was measured using FACS. The output values of triplicate control and EH treatment groups (see above) were averaged and the standard deviation was calculated using Excel. Additionally, a Student's t-test was performed to determine significance by comparing the triplicate values for the control group to those of the EH treated group for each individual time point of 4, 8, 12, and 24 h."}, "Xpa−/− mice [2]": {"tested_on": "Xpa−/− mice", "test": "32-week bioassay of Xpa−/− mice fed antioxidant diets, γ-OHPdG by LC-MS/MS", "type": "in vivo", "details": "for liver γ-OHPdG levels: antioxidant diet vs control diet, liver DNA, LC-MS/MS; for γ-OHPdG levels in the lungs: antioxidant diet, lung (non-target organ)", "text": "All of the mice were housed in a temperature-controlled, light-regulated space with 12-hour light and dark cycles and were given unrestricted access to food and water throughout the experiments. […] The animals were fed with AIN-76A powder diets obtained from Dyets, Inc. (Bethlehem, Pa.) at the age of 4 weeks; four types of diets (control, α-lipoic acid, Theaphenon E and vitamin-E) were used in this study. The only difference between the diets is the sucrose content to be replaced by the antioxidant (Table 1: the doses of the antioxidants, α-lipoic acid (2 g/kg), Theaphenon E (20 g/kg) and vitamin E (1.8 g/kg)), were selected according to recent studies, respectively. The nutrition for all the four diets was calculated within the range of 3694 to 3766 kcal/kg. […] The liver tissues were dissected and kept at −80° C. until usage for DNA isolation.\nDNA (100-500 μg) was dissolved in 5 mM magnesium chloride (800 μL per mg DNA) and spiked with 100 fmol of [^13C10,^15N5]-γ-OHPdG and 50 fmol of [^13C10,^15N5]−/− OHPdG. Enzymatic hydrolysis was performed by incubation with DNase I (1300 units/mg DNA) at 37° C. for 30 min followed by a second addition of DNase I (1300 units/mg DNA). After an additional 10 min at 37° C., alkaline phosphatase (380 units/mg DNA), phosphodiesterase I (0.06 units/mg DNA) and adenosine deaminase (0.5 units) were added, and the mixture was incubated for 1 h. After digestion a small aliquot of hydrolysate was used for dG quantification and the remaining digest was purified by solid phase extraction (SPE) using polymeric C18, 30 mg/1 mL, Strata-X columns (Phenomenex, Inc., Torrance, Calif.). Prior to use, the columns were conditioned by ACN (3×1 mL) and 25 mM ammonium formate buffer pH=4 (3×1 mL). After sample loading, the columns were washed with 2.5% ACN in 25 mM ammonium formate buffer pH=4 (1×1 mL). Then, γ-OHPdG adducts were collected by eluting with 5% ACN in 25 mM ammonium formate buffer pH=4 (1×1 mL). Samples were dried over vacuum using a SpeedVac and kept at −80° C. Before quantification assay samples were reconstituted with 50 μl of water, and 37 μL of sample was injected onto LC-MS/MS.\nDetection and quantification of γ-OHPdG adducts was carried on AB SCIEX 6500 QTrap triple quadrupole mass spectrometer (SCIEX, Framingham, Mass.) coupled with an ACQUITY UPLC liquid chromatography system (Waters Corporation, Milford, Mass.) equipped with 50×2.1 mm, 1.7 m particle size C18 column (Waters ACQUITY UPLC BEH C18). The separation of adducts was performed isocratically by eluting with 3% ACN, 1 mM ammonium formate buffer over 3.5 min using 0.5 mL/min flow rate at 40° C., followed by 100% ACN wash. The ESI source operated in positive mode. The multiple reaction monitoring (MRM) experiment was performed using ion transitions of 324.2-208.1 m/z (γ-OHPdG) and 339.2-218.1 m/z ([^13C10,^15N5]-γ-OHPdG) with a collision energy (CE) of 20 eV for quantification, and those of 324.2-190.1 m/z (γ-OHPdG) and 339.2-200.1 m/z ([^13C10,^15N5]-γ-OHPdG) with a CE of 47 eV for structural confirmation. All other parameters were optimized to achieve maximum signal intensity."}, "Xpa−/− mice [3]": {"tested_on": "Xpa−/− mice", "test": "72-week tumor bioassay of Xpa−/− mice fed antioxidant diets", "type": "in vivo", "details": "72 weeks on diet, control diet 100%", "text": "C3H/HeN.Xpa^−/− mice were created by crossing C57/B6. Xpa^−/− mice with C3H/HeN mice. The resulting heterozygous mice were then backcrossed to C3H mice for five generations. Mice homogeneous for the Xpa-null allele on a C3H background were subsequently generated by brother-sister mating. All of the mice were housed in a temperature-controlled, light-regulated space with 12-hour light and dark cycles and were given unrestricted access to food and water throughout the experiments. […] The animals were fed with AIN-76A powder diets obtained from Dyets, Inc. (Bethlehem, Pa.) at the age of 4 weeks; four types of diets (control, α-lipoic acid, Theaphenon E and vitamin-E) were used in this study. The only difference between the diets is the sucrose content to be replaced by the antioxidant (Table 1: the doses of the antioxidants, α-lipoic acid (2 g/kg), Theaphenon E (20 g/kg) and vitamin E (1.8 g/kg)), were selected according to recent studies, respectively. The nutrition for all the four diets was calculated within the range of 3694 to 3766 kcal/kg. (n=6-7 for time dependent DNA adduct assay, n=18-19 for tumor bioassay after 72 weeks under different diets (see Table 4)). […] Xpa^−/− mice were fed with four types of diets (control, Theaphenon E, α-lipoic acid, and vitamin E) for 72 weeks."}},
  "note": "Entries after “also recorded” stand apart in the source; their conditions may differ.",
  "data": [
    {"molecule": "CCCCC/C=C\\C/C=C\\C/C=C\\C/C=C\\CCCC(=O)O", "note": "[AA, arachidonic acid]", "values": [
      {"measurement": "DHHεdA peak 1", "setting": "HepG2 cells; HepG2, low dose (100 μM)", "value": "bdl"},
      {"measurement": "DHHεdA peak 2", "setting": "HepG2 cells; HepG2, low dose (100 μM)", "value": "bdl"},
      {"measurement": "Total DHHεdA", "setting": "HepG2 cells; HepG2, low dose (100 μM)", "value": "bdl"}
    ]},
    {"molecule": "CCCCCC(O)C1OC1C=O", "note": "(centres unmarked) [EH, 2,3-epoxy-4-hydroxynonanal]", "values": [
      {"measurement": "DHHεdA peak 1", "setting": "HepG2 cells; human, 100 μM", "value": 14.1, "unit": "adducts/T × 10^9"},
      {"measurement": "DHHεdA peak 2", "setting": "HepG2 cells; human, 100 μM", "value": 139.4, "unit": "adducts/T × 10^9"},
      {"measurement": "Total DHHεdA", "setting": "HepG2 cells; human, 100 μM", "value": 153.5, "unit": "adducts/T × 10^9"},
      {"measurement": "DHHεdA peak 1", "setting": "HepG2 cells; human, 300 μM", "value": 186.6, "unit": "adducts/T × 10^9"},
      {"measurement": "DHHεdA peak 2", "setting": "HepG2 cells; human, 300 μM", "value": 2043.8, "unit": "adducts/T × 10^9"},
      {"measurement": "Total DHHεdA", "setting": "HepG2 cells; human, 300 μM", "value": 2230.4, "unit": "adducts/T × 10^9"},
      {"measurement": "cell death", "setting": "[1]; 24 h", "value": "less than 20%"},
      {"measurement": "mean fluorescence intensity of DHHεdA in nuclei (FACS, 3C9C9)", "setting": "[1]; 4, 8, 12 and 24 h vs control", "value": "significant difference between control and EH treated cells for every time point"}
    ]},
    {"molecule": "O=C(O)CCCCC1CCSS1", "note": "(stereo not drawn) [α-lipoic acid]", "values": [
      {"measurement": "liver γ-OHPdG levels", "setting": "Xpa−/− mice [2]", "value": "effectively decreased; also recorded: significant decrease"},
      {"measurement": "γ-OHPdG levels in the lungs", "setting": "Xpa−/− mice [2]", "value": "no significant changes"},
      {"measurement": "HCC incidence", "setting": "Xpa−/− mice [3]", "value": 65, "unit": "%"}
    ]},
    {"molecule": "vitamin E", "values": [
      {"measurement": "liver γ-OHPdG levels", "setting": "Xpa−/− mice [2]", "value": "but not vitamin E, effectively decreased; also recorded: significant decrease"},
      {"measurement": "γ-OHPdG levels in the lungs", "setting": "Xpa−/− mice [2]", "value": "no significant changes"},
      {"measurement": "HCC incidence", "setting": "Xpa−/− mice [3]", "value": "no significant effect"}
    ]}
  ]
}
